Source: patent US12065443B2, “Compounds and pharmaceutical compositions thereof for the treatment of diseases” (priority 2017, dated 2024)

Tests used:
SIK1 = biological target: T1, SIK1 (Homo sapiens, UniProt P57059); assay: biochemical; conditions: 33P radioactive SIK kinase assay, AMARA peptide, 10 μM ATP; read-out: SIK1 IC50
T1 construct: purchased Carna Biosciences 02-131
Summary of the method: (§1)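 AMARA peptide phosphorylation by SIK1–3 is quantified through ^33P uptake from a labeled/unlabeled ATP blend. Staurosporine at 10 μM final defines full inhibition, 1% DMSO the uninhibited signal. Quench uses phosphoric acid; counting follows filter capture.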

SIK2 = biological target: T2, SIK2 (Homo sapiens, UniProt Q9H0K1); assay: biochemical; conditions: 33P radioactive SIK kinase assay, AMARA peptide, 10 μM ATP
T2 construct: purchased ThermoFisher Scientific PV4792
Summary of the method: as §1

SIK3 = biological target: T3, SIK3 (Homo sapiens, UniProt Q9Y2K2); assay: biochemical
T3 construct: purchased SignalChem S12-11G-100
Summary of the method: as §1

[1] = system: LPS-induced TNFα secretion in monocyte-derived macrophages (MdM); assay: MdM assay: LPS-triggered TNFα (ELISA); assay type: cell-based, human; conditions: Homo sapiens, Macrophage, LPS-triggered TNFα inhibition
Experimental: This assay evaluates illustrative compounds of the invention for their inhibition of LPS-induced TNFα and LPS triggered IL-10 secretion in monocyte-derived macrophages.
PBMCs are isolated from human blood samples (buffycoats). The buffy coat is aseptically transferred into a 50 mL Falcon tube, and diluted 1/2 in PBS. Falcon tubes are filled with 20 mL Lymphoprep™, on top of which 25 mL of the buffy coat is carefully added, tubes are centrifuged for 35 min at 400 g in temperature controlled centrifuge, without brake, at 25° C. PBMCs are aspirated from the white interface layer between sample and Lymphoprep™. PBMCs are washed five times in PBS.
PBMCs are centrifuged at 300×g for 10 min and resuspended at a density of 1.0E07 cells/80 μL Miltenyi buffer (PBS, pH 7.4, 1% FBS, 2 mM EDTA).
Starting from this point of the protocol all steps are performed on ice. 20 μL of CD14+ micro-beads are added per 1.0E07 cells, the tube is mixed and incubated for 15 min in the fridge at 4° C. Cell suspension volume is adjusted to total volume of 100 mL using Miltenyi buffer, mixed gently and subsequently centrifuged for 10 min at 300× g. Supernantant is discarded and cell pellet is resuspended in 12 mL of Miltenyi buffer.
Four LS columns are placed in the MACS Separator (magnet) from Miltenyi Biotec, and are prewet by rinsing with 3 mL of MACS buffer per column. Three mL of cell suspension is added onto the column (max 1*10^8 of labelled cells/column), and columns are subsequently washed 3 times with 3 mL of Miltenyi buffer.
The columns are removed from the magnets, and 5 mL of Miltenyi buffer are added to the column to flush out the CD14+ fraction by pushing the plunger into the column. The flushed fractions are collected in a fresh 50 mL Falcon and volume is adjusted to 30 mL using Miltenyi buffer, cells are centrifuged for 10 min at 300× g. The obtained cell pellet is resuspended in 10 mL RPMI w/o FBS, and cell density is determined using a hematologic analyser (Sysmex XS-500i).
On day 10, MdMs are triggered and compound is added.
A compound dilution plate is made in 100% DMSO by 3-fold dilution of 10 mM stock solution. An intermediate dilution plate (10× final concentration) is made by diluting the compound dilution plate 50-fold in RPMI medium.
Medium is carefully removed from cell plates using multichannel pipette, and replaced by 80 μL fresh medium. 10 μL of the 10× final concentration compound is added to the cells and incubated for 1 hour at 37° C. before addition of trigger. No trigger conditions/trigger conditions are spiked with equal final DMSO concentrations of 0.2% DMSO. 10 μL of 10×LPS (final conc. 200 ng/mL) solution are added to all wells except for the ‘no trigger wells’ where 10 μL medium is added. Supernatant is collected after 2 h (IL-10 determination) and after 20 h (TNFα determination) of LPS triggering.
The plate is then washed once with PBST (PBS+0.05% Tween20) and once with PBS followed by the addition of 100 μL of blocking buffer (1% Bovine Serum Albumin (BSA)-5% Sucrose) and plates are sealed and incubated for at least 4 h at RT. After washing the plate once with PBST and once with PBS, 40 μL of standard or sample are added (TNFα standard curve is prepared using a 1/2 serial dilution starting from 16000 pg/mL; dilutions are made in dilution buffer (PBS+1% BSA)). Plates are washed twice with PBST, and once with PBS, after which 35 μL of the detection antibody is added (final concentration 0.25 μg/mL diluted in dilution buffer) and plates are incubated for at least 2 h at RT. Plates are washed twice with PBST, and once with PBS, where after 35 μL of Strep-HRP conjugate (0.5 μg/mL final concentration diluted in dilution buffer) is added. Plates are incubated in the dark, at RT for at least 45 min but no longer than 1 hour. Plates are washed twice with PBST, and once with PBS.

T1 sequence (P57059 whole entry): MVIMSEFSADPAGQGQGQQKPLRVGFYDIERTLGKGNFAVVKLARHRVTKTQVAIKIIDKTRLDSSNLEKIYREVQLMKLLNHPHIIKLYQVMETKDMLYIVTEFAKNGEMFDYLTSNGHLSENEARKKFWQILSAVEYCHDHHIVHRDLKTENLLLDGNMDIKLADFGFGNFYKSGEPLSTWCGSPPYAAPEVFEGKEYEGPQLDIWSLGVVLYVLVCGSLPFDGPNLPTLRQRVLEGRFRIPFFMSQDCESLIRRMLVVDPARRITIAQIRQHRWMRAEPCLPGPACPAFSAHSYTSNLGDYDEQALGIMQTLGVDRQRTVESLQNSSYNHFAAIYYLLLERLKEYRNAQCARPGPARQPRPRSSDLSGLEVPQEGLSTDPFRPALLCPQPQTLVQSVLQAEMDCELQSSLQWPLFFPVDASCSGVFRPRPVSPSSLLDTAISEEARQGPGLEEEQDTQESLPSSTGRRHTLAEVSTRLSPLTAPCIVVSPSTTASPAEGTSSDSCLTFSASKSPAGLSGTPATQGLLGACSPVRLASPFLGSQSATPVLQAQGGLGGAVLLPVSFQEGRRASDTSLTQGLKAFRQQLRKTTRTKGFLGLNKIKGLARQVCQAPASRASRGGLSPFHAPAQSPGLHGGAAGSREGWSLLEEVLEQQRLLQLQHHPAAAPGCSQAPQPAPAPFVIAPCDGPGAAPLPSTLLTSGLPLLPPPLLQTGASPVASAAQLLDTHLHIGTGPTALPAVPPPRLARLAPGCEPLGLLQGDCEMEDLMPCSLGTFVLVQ
T3 sequence (Q9Y2K2 whole entry): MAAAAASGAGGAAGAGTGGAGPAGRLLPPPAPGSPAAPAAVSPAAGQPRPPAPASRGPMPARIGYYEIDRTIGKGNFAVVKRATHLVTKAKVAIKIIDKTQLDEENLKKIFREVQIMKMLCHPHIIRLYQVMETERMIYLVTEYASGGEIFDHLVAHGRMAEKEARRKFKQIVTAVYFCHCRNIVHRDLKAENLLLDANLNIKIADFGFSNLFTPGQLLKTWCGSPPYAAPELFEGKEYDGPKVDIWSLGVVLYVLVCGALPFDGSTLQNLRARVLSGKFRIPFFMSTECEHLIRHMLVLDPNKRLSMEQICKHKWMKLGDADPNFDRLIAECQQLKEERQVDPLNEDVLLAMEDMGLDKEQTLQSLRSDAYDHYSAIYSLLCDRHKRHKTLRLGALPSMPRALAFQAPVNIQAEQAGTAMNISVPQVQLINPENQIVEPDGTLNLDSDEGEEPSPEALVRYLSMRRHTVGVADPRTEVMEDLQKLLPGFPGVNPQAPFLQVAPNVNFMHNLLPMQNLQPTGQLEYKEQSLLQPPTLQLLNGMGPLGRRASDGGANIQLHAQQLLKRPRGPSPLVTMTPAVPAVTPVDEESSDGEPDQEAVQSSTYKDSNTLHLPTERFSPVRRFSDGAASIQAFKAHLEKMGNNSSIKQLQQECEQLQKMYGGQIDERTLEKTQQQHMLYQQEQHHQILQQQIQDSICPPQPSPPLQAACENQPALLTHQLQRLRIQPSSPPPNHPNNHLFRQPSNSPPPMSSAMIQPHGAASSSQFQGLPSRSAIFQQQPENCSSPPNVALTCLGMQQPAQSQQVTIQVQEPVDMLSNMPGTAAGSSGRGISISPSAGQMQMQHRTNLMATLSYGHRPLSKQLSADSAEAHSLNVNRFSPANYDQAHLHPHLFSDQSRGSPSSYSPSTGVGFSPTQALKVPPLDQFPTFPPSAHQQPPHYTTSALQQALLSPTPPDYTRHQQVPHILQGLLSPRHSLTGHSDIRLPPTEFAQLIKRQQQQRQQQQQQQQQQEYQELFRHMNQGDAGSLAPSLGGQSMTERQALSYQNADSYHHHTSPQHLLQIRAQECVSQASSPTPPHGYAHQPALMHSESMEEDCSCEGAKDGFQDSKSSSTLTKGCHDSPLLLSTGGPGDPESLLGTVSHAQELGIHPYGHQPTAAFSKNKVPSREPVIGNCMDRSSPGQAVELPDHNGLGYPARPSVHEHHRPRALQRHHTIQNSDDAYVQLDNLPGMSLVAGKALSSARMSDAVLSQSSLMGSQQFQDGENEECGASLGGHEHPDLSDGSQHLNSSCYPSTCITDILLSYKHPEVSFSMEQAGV
T2 sequence (Q9H0K1 whole entry): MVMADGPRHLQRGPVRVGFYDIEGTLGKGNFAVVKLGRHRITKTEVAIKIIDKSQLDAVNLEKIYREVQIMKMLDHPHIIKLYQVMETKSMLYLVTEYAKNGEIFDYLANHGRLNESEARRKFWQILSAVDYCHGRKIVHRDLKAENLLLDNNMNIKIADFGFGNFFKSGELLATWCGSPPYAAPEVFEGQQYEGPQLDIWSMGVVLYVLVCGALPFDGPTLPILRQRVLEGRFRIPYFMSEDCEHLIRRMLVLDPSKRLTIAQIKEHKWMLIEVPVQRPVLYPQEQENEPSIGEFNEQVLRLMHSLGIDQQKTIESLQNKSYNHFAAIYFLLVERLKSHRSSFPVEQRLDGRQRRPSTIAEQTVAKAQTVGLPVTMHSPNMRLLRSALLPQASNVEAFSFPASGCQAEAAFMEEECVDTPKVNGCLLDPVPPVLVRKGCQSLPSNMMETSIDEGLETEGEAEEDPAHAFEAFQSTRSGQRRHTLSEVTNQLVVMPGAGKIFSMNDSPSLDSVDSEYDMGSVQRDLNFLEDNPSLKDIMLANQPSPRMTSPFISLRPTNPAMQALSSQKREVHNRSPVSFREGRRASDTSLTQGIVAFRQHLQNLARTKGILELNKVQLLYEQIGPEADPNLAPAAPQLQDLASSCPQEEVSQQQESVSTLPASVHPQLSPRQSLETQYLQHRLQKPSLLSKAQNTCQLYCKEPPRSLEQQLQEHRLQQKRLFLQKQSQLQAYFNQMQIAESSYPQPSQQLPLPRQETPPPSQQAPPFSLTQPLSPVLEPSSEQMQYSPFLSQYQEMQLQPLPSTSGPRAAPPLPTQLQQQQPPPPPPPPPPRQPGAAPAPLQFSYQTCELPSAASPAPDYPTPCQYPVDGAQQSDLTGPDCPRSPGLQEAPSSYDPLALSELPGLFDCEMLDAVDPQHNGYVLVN

IC50 (SIK1) [nM] | IC50 (SIK2) [nM] | IC50 (SIK3) [nM] | EC50 [1] [nM] | Compound
10 to 100 | 10 to 100 | 10 to 100 | 100 to 1000 | CCn1cc(-c2ccc3c(c2)ncn3-c2cc(OC)c(C(=O)NC3CCC3)c(OC)c2)cn1 [compound 26, N-cyclobutyl-4-[5-(1-ethylpyrazol-4-yl)benzimidazol-1-yl]-2,6-dimethoxy-benzamide]
10 to 100 | 10 to 100 | 10 to 100 | 100 to 1000 | COc1cc(-n2cnc3cc(-c4ccc(N5CCOCC5)nc4)ccc32)cc(OC)c1C(=O)NCC(F)(F)F [compound 32, 2,6-dimethoxy-4-[5-(6-morpholino-3-pyridyl)benzimidazol-1-yl]-N-(2,2,2-trifluoroethyl)benzamide]
10 to 100 | 0.01 to 10 | 10 to 100 | 100 to 1000 | COc1cc(-n2cnc3cc(-c4ccc(N5CCCC5)nc4)ccc32)cc(OC)c1C(=O)NCC(F)(F)F [compound 34, 2,6-dimethoxy-4-[5-(6-pyrrolidin-1-yl-3-pyridyl)benzimidazol-1-yl]-N-(2,2,2-trifluoroethyl)benzamide]
0.01 to 10 | 0.01 to 10 | 0.01 to 10 | 100 to 1000 | COc1cc(-n2cnc3cc(-c4cnn(C5CCNCC5)c4)ccc32)cc(OC)c1C(=O)NCC(F)(F)F [compound 42, 2,6-dimethoxy-4-[5-[1-(4-piperidyl)pyrazol-4-yl]benzimidazol-1-yl]-N-(2,2,2-trifluoroethyl)benzamide]
10 to 100 | 10 to 100 | 10 to 100 | 100 to 1000 | CCn1cc(-c2ccc3c(c2)ncn3-c2cc(OC)c(C(=O)NCCC(F)(F)F)c(OC)c2)cn1 [compound 44, 4-[5-(1-ethylpyrazol-4-yl)benzimidazol-1-yl]-2,6-dimethoxy-N-(3,3,3-trifluoropropyl)benzamide]
10 to 100 | 10 to 100 | 10 to 100 | 100 to 1000 | COc1cc(-n2cnc3cc(-c4cnn(C)c4)ccc32)cc(OC)c1C(=O)N[C@H](C)C(F)(F)F [compound 58, 2,6-dimethoxy-4-[5-(1-methylpyrazol-4-yl)benzimidazol-1-yl]-N-[(1R)-2,2,2-trifluoro-1-methyl-ethyl]benzamide]
10 to 100 | 10 to 100 | 10 to 100 | 100 to 1000 | COc1cc(-n2cnc3cc(-c4cnn(C)c4)ccc32)cc(OC)c1C(=O)NC1CC(F)(F)C1 [compound 125, N-(3,3-difluorocyclobutyl)-2,6-dimethoxy-4-[5-(1-methylpyrazol-4-yl)benzimidazol-1-yl]benzamide]
10 to 100 | 0.01 to 10 | 0.01 to 10 | 100 to 1000 | COc1cc(-c2cnc3cc(-c4cnn(C)c4)ccn23)cc(OC)c1C(=O)NCC(C)C [compound 129, N-isobutyl-2,6-dimethoxy-4-[7-(1-methylpvrazol-4-yl)imidazo[1,2-a]pyridin-3-yl]benzamide]
10 to 100 | 10 to 100 | 10 to 100 | 1000 to 5000 | CCNC(=O)c1c(OC)cc(-c2cnc3cc(-c4ccnnc4)ccn23)cc1OC(F)F [compound 145, 2-(difluoromethoxy)-N-ethyl-6-methoxy-4-(7-pyridazin-4-ylimidazo[1,2-a]pyridin-3-yl)benzamide]
100 to 500 | 10 to 100 | 10 to 100 | 100 to 1000 | CCNC(=O)c1c(OC)cc(-c2cnc3cc(-c4ccc(C#N)nc4)ccn23)cc1OC(F)F [compound 146, 4-[7-(6-cyano-3-pyridyl)imidazo[1,2-a]pyridin-3-yl]-2-(difluoromethoxy)-N-ethyl-6-methoxy-benzamide]
0.01 to 10 | 0.01 to 10 | 0.01 to 10 | 0.1 to 100 | CCNC(=O)c1c(OC)cc(-c2cnc3cc(-c4cnn(C5CCN(C(=O)OC(C)(C)C)CC5)c4)ccn23)cc1OC(F)F [compound 147, tert-butyl 4-[4-[3-[3-(difluoromethoxy)-4-(ethylcarbamoyl)-5-methoxy-phenyl]imidazo[1,2-a]pyridin-7-yl]pyrazol-1-yl]piperidine-1-carboxylate]
0.01 to 10 | 0.01 to 10 | 0.01 to 10 | 100 to 1000 | CCNC(=O)c1c(OC)cc(-c2cnc3cc(-c4cnn(C5CCNCC5)c4)ccn23)cc1OC(F)F [compound 149, 2-(difluoromethoxy)-N-ethyl-6-methoxy-4-[7-[1-(4-piperidyl)pyrazol-4-yl]imidazo[1,2-a]pyridin-3-yl]benzamide]
0.01 to 10 | 0.01 to 10 | 0.01 to 10 | 0.1 to 100 | CCNC(=O)c1c(OC)cc(-c2cnc3cc(-c4cnn(C(F)F)c4)ccn23)cc1OC(F)F [compound 151, 2-(difluoromethoxy)-4-[7-[1-(difluoromethyl)pyrazol-4-yl]imidazo[1,2-a]pyridin-3-yl]-N-ethyl-6-methoxy-benzamide]
10 to 100 | 10 to 100 | 10 to 100 | 1000 to 5000 | COc1cc(-n2cnc3cc(-c4cnc(C)[nH]4)ccc32)cc(OC)c1C(=O)NCC(F)(F)F [compound 152, 2,6-dimethoxy-4-[5-(2-methyl-1H-imidazol-5-yl)benzimidazol-1-yl]-N(2,2,2-trifluoroethyl)benzamide]
10 to 100 | 10 to 100 | 10 to 100 | 1000 to 5000 | COc1cc(-n2cnc3cc(-c4cnn(C)c4)ccc32)cc(OC)c1C(=O)N[C@@H]1C[C@H]1CO [compound 156, N-[(1R,2R)-2-(hydroxymethyl)cyclopropyl]-2,6-dimethoxy-4-[5-(1-methylpyrazol-4-yl)benzimidazol-1-yl]benzamide]
10 to 100 | 10 to 100 | 10 to 100 | 100 to 1000 | COc1cc(-n2cnc3cc(-c4cnn(C)c4)ccc32)cc(OC)c1C(=O)N[C@@H]1C[C@H]1C(F)F [compound 157]
10 to 100 | 10 to 100 | 10 to 100 | 100 to 1000 | COc1cc(-n2cnc3cc(-c4cnn(C)c4)ccc32)cc(OC)c1C(=O)N[C@@H]1CC[C@H]1O [compound 159, N-[(1R,2R)-2-hydroxycyclobutyl]-2,6-dimethoxy-4-[5-(1-methylpyrazol-4-yl)benzimidazol-1-yl]benzamide]
10 to 100 | 10 to 100 | 10 to 100 | 100 to 1000 | COc1cc(-n2cnc3cc(-c4cn(C)nn4)ccc32)cc(OC)c1C(=O)NCC(F)(F)F [compound 160, 2,6-dimethoxy-4-[5-(1-methyltriazol-4-yl)benzimidazol-1-yl]-N-(2,2,2-trifluoroethyl)benzamide]
10 to 100 | 10 to 100 | 10 to 100 | > 5000 | COc1cc(-n2cnc3cc(-c4cnn(C)c4)ccc32)cc(OC)c1C(=O)NCCN [compound 163, N-(2-aminoethyl)-2,6-dimethoxy-4-[5-(1-methylpyrazol-4-yl)benzimidazol-1-yl]benzamide]
